Measurements reported in the kinase profiling compilation of Christmann-Franck et al. (2016).

target: AURKB (human) (UniProt Q96GD4); assay: radiometric filter-binding kinase assay, Kinase HotSpot; details: compound 0.5 µM; ATP 10 µM

Compound | residual activity
O=c1cc(N2CCOCC2)oc2c1ccc1ccccc12 | 97.6%
CC(=O)c1ccc(N2CCOCC2)cc1O | 91.4%
O=C1Nc2ccc(Cl)cc2/C1=C/c1cc(Cl)c(O)c(Cl)c1 | 9.19%

target: MAP3K11 (human) (UniProt Q16584); assay: as above; details: compound 0.5 µM; ATP 10 µM

Compound | residual activity
O=c1cc(N2CCOCC2)oc2c1ccc1ccccc12 | 99.2%
CC(=O)c1ccc(N2CCOCC2)cc1O | 94.8%
O=C1Nc2ccc(Cl)cc2/C1=C/c1cc(Cl)c(O)c(Cl)c1 | 60.4%

target: JAK2 JH1 JH2 (human) (UniProt O60674); assay: as above; details: compound 0.5 µM; ATP 10 µM
Sequence (O60674 whole entry, looked up): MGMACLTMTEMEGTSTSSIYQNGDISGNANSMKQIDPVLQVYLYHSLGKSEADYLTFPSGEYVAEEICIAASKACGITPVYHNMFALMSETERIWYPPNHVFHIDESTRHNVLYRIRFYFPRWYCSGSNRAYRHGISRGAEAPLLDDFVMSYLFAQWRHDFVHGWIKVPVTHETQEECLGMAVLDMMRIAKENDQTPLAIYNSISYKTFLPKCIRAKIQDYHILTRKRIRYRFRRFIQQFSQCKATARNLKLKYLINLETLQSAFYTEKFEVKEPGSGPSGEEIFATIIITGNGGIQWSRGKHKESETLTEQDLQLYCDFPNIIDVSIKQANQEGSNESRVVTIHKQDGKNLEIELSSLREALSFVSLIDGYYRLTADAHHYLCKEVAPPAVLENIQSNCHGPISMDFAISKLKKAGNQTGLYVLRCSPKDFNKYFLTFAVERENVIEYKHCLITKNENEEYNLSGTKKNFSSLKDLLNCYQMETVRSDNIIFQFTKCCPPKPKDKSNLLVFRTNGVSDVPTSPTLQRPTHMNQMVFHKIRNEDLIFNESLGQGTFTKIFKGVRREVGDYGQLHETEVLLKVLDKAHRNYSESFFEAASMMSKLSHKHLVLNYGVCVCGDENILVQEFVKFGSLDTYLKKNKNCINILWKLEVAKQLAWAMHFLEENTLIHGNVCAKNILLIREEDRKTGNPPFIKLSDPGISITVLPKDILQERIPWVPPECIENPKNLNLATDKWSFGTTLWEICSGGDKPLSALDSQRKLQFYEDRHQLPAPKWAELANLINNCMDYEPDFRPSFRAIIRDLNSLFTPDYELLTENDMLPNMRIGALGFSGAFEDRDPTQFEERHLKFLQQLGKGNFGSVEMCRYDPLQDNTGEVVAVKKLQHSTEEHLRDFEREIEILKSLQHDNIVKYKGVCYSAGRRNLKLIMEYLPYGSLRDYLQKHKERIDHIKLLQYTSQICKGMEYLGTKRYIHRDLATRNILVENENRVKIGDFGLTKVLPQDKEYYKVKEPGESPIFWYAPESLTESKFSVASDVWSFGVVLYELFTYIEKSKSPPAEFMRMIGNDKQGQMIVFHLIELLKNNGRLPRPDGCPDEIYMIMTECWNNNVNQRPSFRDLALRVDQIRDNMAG

Compound | residual activity
O=c1cc(N2CCOCC2)oc2c1ccc1ccccc12 | 94.9%
CC(=O)c1ccc(N2CCOCC2)cc1O | 93.6%
O=C1Nc2ccc(Cl)cc2/C1=C/c1cc(Cl)c(O)c(Cl)c1 | 91.1%

target: CLK2 (human) (UniProt P49760); assay: as above; details: compound 0.5 µM; ATP 10 µM

Compound | residual activity
O=c1cc(N2CCOCC2)oc2c1ccc1ccccc12 | 101%
CC(=O)c1ccc(N2CCOCC2)cc1O | 102%
O=C1Nc2ccc(Cl)cc2/C1=C/c1cc(Cl)c(O)c(Cl)c1 | 95.5%

target: PKN2 (human) (UniProt Q16513); assay: as above; details: compound 0.5 µM; ATP 10 µM

Compound | residual activity
O=c1cc(N2CCOCC2)oc2c1ccc1ccccc12 | 93.2%
CC(=O)c1ccc(N2CCOCC2)cc1O | 94.8%
O=C1Nc2ccc(Cl)cc2/C1=C/c1cc(Cl)c(O)c(Cl)c1 | 114%

target: ERBB4 (human) (UniProt Q15303); assay: as above; details: compound 0.5 µM; ATP 10 µM

Compound | residual activity
O=c1cc(N2CCOCC2)oc2c1ccc1ccccc12 | 101%
CC(=O)c1ccc(N2CCOCC2)cc1O | 107%
O=C1Nc2ccc(Cl)cc2/C1=C/c1cc(Cl)c(O)c(Cl)c1 | 94.2%

target: GRK7 (human) (UniProt Q8WTQ7); assay: as above; details: compound 0.5 µM; ATP 10 µM

Compound | residual activity
O=c1cc(N2CCOCC2)oc2c1ccc1ccccc12 | 107%
CC(=O)c1ccc(N2CCOCC2)cc1O | 100%
O=C1Nc2ccc(Cl)cc2/C1=C/c1cc(Cl)c(O)c(Cl)c1 | 97.3%

target: ERBB2 (human) (UniProt P04626); assay: as above; details: compound 0.5 µM; ATP 10 µM

Compound | residual activity
O=c1cc(N2CCOCC2)oc2c1ccc1ccccc12 | 105%
CC(=O)c1ccc(N2CCOCC2)cc1O | 98.2%
O=C1Nc2ccc(Cl)cc2/C1=C/c1cc(Cl)c(O)c(Cl)c1 | 107%

target: CDK6 CCND1 (human) (UniProt Q00534+P24385); assay: as above; details: compound 0.5 µM; ATP 10 µM

Compound | residual activity
O=c1cc(N2CCOCC2)oc2c1ccc1ccccc12 | 102%
CC(=O)c1ccc(N2CCOCC2)cc1O | 99.3%
O=C1Nc2ccc(Cl)cc2/C1=C/c1cc(Cl)c(O)c(Cl)c1 | 97%

target: ROCK2 (human) (UniProt O75116); assay: as above; details: compound 0.5 µM; ATP 10 µM

Compound | residual activity
O=c1cc(N2CCOCC2)oc2c1ccc1ccccc12 | 95.9%
CC(=O)c1ccc(N2CCOCC2)cc1O | 94.7%
O=C1Nc2ccc(Cl)cc2/C1=C/c1cc(Cl)c(O)c(Cl)c1 | 90.6%

target: NUAK1 (human) (UniProt O60285); assay: as above; details: compound 0.5 µM; ATP 10 µM
Sequence (O60285 whole entry, looked up): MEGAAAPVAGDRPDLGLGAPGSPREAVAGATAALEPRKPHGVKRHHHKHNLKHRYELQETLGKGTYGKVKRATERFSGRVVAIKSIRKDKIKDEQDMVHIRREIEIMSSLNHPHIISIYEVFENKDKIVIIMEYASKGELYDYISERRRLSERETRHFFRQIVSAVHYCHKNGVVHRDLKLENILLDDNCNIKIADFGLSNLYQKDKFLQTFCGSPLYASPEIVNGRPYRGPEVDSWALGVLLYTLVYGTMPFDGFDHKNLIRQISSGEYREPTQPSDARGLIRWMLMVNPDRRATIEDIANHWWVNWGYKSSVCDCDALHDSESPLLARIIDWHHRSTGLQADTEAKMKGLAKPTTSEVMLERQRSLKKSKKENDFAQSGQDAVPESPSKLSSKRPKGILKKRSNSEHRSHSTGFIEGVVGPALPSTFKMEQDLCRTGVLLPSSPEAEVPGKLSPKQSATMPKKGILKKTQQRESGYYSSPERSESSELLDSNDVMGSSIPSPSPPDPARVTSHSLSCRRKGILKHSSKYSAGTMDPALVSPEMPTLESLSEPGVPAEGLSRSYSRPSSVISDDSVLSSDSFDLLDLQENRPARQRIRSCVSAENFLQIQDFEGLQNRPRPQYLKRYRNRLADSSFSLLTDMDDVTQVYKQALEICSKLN

Compound | residual activity
O=c1cc(N2CCOCC2)oc2c1ccc1ccccc12 | 90.1%
CC(=O)c1ccc(N2CCOCC2)cc1O | 92.8%
O=C1Nc2ccc(Cl)cc2/C1=C/c1cc(Cl)c(O)c(Cl)c1 | 72.5%

target: MAPK10 (human) (UniProt P53779); assay: as above; details: compound 0.5 µM; ATP 10 µM

Compound | residual activity
O=c1cc(N2CCOCC2)oc2c1ccc1ccccc12 | 73.8%
CC(=O)c1ccc(N2CCOCC2)cc1O | 78.4%
O=C1Nc2ccc(Cl)cc2/C1=C/c1cc(Cl)c(O)c(Cl)c1 | 98.8%

target: FGFR1 (human) (UniProt P11362); assay: as above; details: compound 0.5 µM; ATP 10 µM
Sequence (P11362 whole entry, looked up): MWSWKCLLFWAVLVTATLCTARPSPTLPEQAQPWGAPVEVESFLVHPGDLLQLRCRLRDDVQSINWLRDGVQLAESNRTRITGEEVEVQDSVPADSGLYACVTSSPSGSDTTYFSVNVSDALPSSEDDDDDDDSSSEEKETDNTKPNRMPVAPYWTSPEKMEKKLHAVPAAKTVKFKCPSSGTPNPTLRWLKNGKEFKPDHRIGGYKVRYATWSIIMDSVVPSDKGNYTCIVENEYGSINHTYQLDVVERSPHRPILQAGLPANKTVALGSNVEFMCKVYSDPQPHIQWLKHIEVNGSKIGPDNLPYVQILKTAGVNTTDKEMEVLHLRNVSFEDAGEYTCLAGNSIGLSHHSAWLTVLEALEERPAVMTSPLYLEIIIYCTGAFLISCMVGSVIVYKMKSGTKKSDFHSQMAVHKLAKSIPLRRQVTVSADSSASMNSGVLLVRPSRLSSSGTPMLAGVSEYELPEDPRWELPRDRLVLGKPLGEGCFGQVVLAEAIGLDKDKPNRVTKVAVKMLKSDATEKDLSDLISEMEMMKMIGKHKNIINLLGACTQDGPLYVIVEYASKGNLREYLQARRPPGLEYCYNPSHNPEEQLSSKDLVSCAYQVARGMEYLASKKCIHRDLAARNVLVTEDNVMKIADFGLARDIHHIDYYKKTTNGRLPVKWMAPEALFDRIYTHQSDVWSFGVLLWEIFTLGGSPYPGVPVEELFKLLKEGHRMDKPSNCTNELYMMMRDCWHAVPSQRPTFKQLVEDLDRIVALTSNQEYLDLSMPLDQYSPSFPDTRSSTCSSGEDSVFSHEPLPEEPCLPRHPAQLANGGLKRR

Compound | residual activity
O=c1cc(N2CCOCC2)oc2c1ccc1ccccc12 | 92.1%
CC(=O)c1ccc(N2CCOCC2)cc1O | 91.4%
O=C1Nc2ccc(Cl)cc2/C1=C/c1cc(Cl)c(O)c(Cl)c1 | 90.8%

target: STK33 (human) (UniProt Q9BYT3); assay: as above; details: compound 0.5 µM; ATP 10 µM

Compound | residual activity
O=c1cc(N2CCOCC2)oc2c1ccc1ccccc12 | 97.5%
CC(=O)c1ccc(N2CCOCC2)cc1O | 109%
O=C1Nc2ccc(Cl)cc2/C1=C/c1cc(Cl)c(O)c(Cl)c1 | 85.1%

target: LCK (human) (UniProt P06239); assay: as above; details: compound 0.5 µM; ATP 10 µM
Sequence (P06239 whole entry, looked up): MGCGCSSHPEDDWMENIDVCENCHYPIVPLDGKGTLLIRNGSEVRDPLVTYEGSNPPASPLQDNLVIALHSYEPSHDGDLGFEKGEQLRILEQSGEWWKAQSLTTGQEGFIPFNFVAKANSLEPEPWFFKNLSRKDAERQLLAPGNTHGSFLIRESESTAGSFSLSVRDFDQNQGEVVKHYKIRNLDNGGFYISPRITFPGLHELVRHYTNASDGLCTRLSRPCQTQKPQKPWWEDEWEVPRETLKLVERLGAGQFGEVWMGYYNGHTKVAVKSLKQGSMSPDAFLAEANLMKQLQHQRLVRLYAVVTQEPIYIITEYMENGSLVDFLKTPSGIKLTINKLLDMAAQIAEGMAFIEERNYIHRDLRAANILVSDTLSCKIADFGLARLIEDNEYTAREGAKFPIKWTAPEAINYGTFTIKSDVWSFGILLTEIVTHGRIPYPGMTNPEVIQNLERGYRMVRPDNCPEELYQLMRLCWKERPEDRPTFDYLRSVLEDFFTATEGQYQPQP

Compound | residual activity
O=c1cc(N2CCOCC2)oc2c1ccc1ccccc12 | 99.2%
CC(=O)c1ccc(N2CCOCC2)cc1O | 100%
O=C1Nc2ccc(Cl)cc2/C1=C/c1cc(Cl)c(O)c(Cl)c1 | 88.2%

target: MAP2K1 (human) (UniProt Q02750); assay: as above; details: compound 0.5 µM; ATP 10 µM

Compound | residual activity
O=c1cc(N2CCOCC2)oc2c1ccc1ccccc12 | 99.3%
CC(=O)c1ccc(N2CCOCC2)cc1O | 95.2%
O=C1Nc2ccc(Cl)cc2/C1=C/c1cc(Cl)c(O)c(Cl)c1 | 96.8%

target: CDK1 CCNA2 (human) (UniProt P06493+P20248); assay: as above; details: compound 0.5 µM; ATP 10 µM

Compound | residual activity
O=c1cc(N2CCOCC2)oc2c1ccc1ccccc12 | 103%
CC(=O)c1ccc(N2CCOCC2)cc1O | 99.8%
O=C1Nc2ccc(Cl)cc2/C1=C/c1cc(Cl)c(O)c(Cl)c1 | 91.9%

target: WNK2 (human) (UniProt Q9Y3S1); assay: as above; details: compound 0.5 µM; ATP 10 µM

Compound | residual activity
O=c1cc(N2CCOCC2)oc2c1ccc1ccccc12 | 103%
CC(=O)c1ccc(N2CCOCC2)cc1O | 101%
O=C1Nc2ccc(Cl)cc2/C1=C/c1cc(Cl)c(O)c(Cl)c1 | 115%

target: TYK2 JH1 catalytic (human) (UniProt P29597); assay: as above; details: compound 0.5 µM; ATP 10 µM

Compound | residual activity
O=c1cc(N2CCOCC2)oc2c1ccc1ccccc12 | 111%
CC(=O)c1ccc(N2CCOCC2)cc1O | 110%
O=C1Nc2ccc(Cl)cc2/C1=C/c1cc(Cl)c(O)c(Cl)c1 | 26.9%

target: PASK (human) (UniProt Q96RG2); assay: as above; details: compound 0.5 µM; ATP 10 µM
Sequence (Q96RG2 whole entry, looked up): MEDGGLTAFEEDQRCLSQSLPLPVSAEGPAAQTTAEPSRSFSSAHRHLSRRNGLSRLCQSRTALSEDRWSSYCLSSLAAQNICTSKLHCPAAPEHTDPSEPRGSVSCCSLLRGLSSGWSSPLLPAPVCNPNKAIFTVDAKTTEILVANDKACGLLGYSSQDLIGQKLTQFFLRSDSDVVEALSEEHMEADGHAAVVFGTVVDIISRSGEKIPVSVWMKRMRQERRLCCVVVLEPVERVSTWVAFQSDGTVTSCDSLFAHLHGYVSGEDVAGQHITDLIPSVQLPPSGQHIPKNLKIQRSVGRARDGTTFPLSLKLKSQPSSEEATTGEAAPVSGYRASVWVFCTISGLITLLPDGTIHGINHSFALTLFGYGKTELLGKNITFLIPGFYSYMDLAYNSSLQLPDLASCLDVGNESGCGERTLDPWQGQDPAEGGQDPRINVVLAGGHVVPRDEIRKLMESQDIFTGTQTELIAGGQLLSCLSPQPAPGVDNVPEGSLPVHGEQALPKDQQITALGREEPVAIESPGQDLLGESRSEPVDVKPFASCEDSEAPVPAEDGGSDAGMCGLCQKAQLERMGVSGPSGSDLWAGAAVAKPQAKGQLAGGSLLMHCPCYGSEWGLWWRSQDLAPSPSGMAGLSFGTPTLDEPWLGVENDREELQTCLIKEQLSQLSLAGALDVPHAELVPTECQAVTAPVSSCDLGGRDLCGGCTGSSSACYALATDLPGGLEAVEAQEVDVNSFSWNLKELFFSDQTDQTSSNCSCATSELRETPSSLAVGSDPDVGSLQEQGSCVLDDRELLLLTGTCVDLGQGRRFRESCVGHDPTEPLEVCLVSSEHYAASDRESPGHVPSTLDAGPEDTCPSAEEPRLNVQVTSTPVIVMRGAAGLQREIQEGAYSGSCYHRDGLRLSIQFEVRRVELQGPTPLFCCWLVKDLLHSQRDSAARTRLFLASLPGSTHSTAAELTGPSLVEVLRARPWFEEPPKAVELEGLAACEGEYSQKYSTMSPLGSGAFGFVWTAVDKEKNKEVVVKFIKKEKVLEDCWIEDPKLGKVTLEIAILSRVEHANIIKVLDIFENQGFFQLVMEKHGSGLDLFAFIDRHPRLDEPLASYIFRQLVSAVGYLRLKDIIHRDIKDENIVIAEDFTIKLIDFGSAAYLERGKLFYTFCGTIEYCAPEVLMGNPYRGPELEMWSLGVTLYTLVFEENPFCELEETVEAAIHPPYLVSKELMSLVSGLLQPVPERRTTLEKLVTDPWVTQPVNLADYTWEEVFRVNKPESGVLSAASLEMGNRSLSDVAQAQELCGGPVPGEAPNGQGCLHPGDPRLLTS

Compound | residual activity
O=c1cc(N2CCOCC2)oc2c1ccc1ccccc12 | 94.9%
CC(=O)c1ccc(N2CCOCC2)cc1O | 95%
O=C1Nc2ccc(Cl)cc2/C1=C/c1cc(Cl)c(O)c(Cl)c1 | 70%

target: FGFR2 (human) (UniProt P21802); assay: as above; details: compound 0.5 µM; ATP 10 µM

Compound | residual activity
O=c1cc(N2CCOCC2)oc2c1ccc1ccccc12 | 107%
CC(=O)c1ccc(N2CCOCC2)cc1O | 108%
O=C1Nc2ccc(Cl)cc2/C1=C/c1cc(Cl)c(O)c(Cl)c1 | 92%

target: PRKCZ (human) (UniProt Q05513); assay: as above; details: compound 0.5 µM; ATP 10 µM

Compound | residual activity
O=c1cc(N2CCOCC2)oc2c1ccc1ccccc12 | 106%
CC(=O)c1ccc(N2CCOCC2)cc1O | 111%
O=C1Nc2ccc(Cl)cc2/C1=C/c1cc(Cl)c(O)c(Cl)c1 | 95.3%

target: RPS6KA3 KD1 KD2 (human) (UniProt P51812); assay: as above; details: compound 0.5 µM; ATP 10 µM

Compound | residual activity
O=c1cc(N2CCOCC2)oc2c1ccc1ccccc12 | 103%
CC(=O)c1ccc(N2CCOCC2)cc1O | 101%
O=C1Nc2ccc(Cl)cc2/C1=C/c1cc(Cl)c(O)c(Cl)c1 | 96%

target: MYLK (human) (UniProt Q15746); assay: as above; details: compound 0.5 µM; ATP 10 µM

Compound | residual activity
O=c1cc(N2CCOCC2)oc2c1ccc1ccccc12 | 92.3%
CC(=O)c1ccc(N2CCOCC2)cc1O | 91.1%
O=C1Nc2ccc(Cl)cc2/C1=C/c1cc(Cl)c(O)c(Cl)c1 | 62.3%

target: ACVR1B (human) (UniProt P36896); assay: as above; details: compound 0.5 µM; ATP 10 µM

Compound | residual activity
O=c1cc(N2CCOCC2)oc2c1ccc1ccccc12 | 103%
CC(=O)c1ccc(N2CCOCC2)cc1O | 100%
O=C1Nc2ccc(Cl)cc2/C1=C/c1cc(Cl)c(O)c(Cl)c1 | 127%

target: PLK1 (human) (UniProt P53350); assay: as above; details: compound 0.5 µM; ATP 10 µM

Compound | residual activity
O=c1cc(N2CCOCC2)oc2c1ccc1ccccc12 | 68.4%
CC(=O)c1ccc(N2CCOCC2)cc1O | 94.3%
O=C1Nc2ccc(Cl)cc2/C1=C/c1cc(Cl)c(O)c(Cl)c1 | 99.8%

target: ZAP70 (human) (UniProt P43403); assay: as above; details: compound 0.5 µM; ATP 10 µM

Compound | residual activity
O=c1cc(N2CCOCC2)oc2c1ccc1ccccc12 | 103%
CC(=O)c1ccc(N2CCOCC2)cc1O | 99.5%
O=C1Nc2ccc(Cl)cc2/C1=C/c1cc(Cl)c(O)c(Cl)c1 | 95%

target: CSNK1E (human) (UniProt P49674); assay: as above; details: compound 0.5 µM; ATP 10 µM

Compound | residual activity
O=c1cc(N2CCOCC2)oc2c1ccc1ccccc12 | 92.5%
CC(=O)c1ccc(N2CCOCC2)cc1O | 96.2%
O=C1Nc2ccc(Cl)cc2/C1=C/c1cc(Cl)c(O)c(Cl)c1 | 66.6%

target: PRKCB2 (human) (UniProt P05771); assay: as above; details: compound 0.5 µM; ATP 10 µM

Compound | residual activity
O=c1cc(N2CCOCC2)oc2c1ccc1ccccc12 | 99.9%
CC(=O)c1ccc(N2CCOCC2)cc1O | 97.9%
O=C1Nc2ccc(Cl)cc2/C1=C/c1cc(Cl)c(O)c(Cl)c1 | 97.5%

target: OXSR1 (human) (UniProt O95747); assay: as above; details: compound 0.5 µM; ATP 10 µM

Compound | residual activity
O=c1cc(N2CCOCC2)oc2c1ccc1ccccc12 | 108%
CC(=O)c1ccc(N2CCOCC2)cc1O | 115%
O=C1Nc2ccc(Cl)cc2/C1=C/c1cc(Cl)c(O)c(Cl)c1 | 91.6%

target: DAPK1 (human) (UniProt P53355); assay: as above; details: compound 0.5 µM; ATP 10 µM

Compound | residual activity
O=c1cc(N2CCOCC2)oc2c1ccc1ccccc12 | 90.9%
CC(=O)c1ccc(N2CCOCC2)cc1O | 92.8%
O=C1Nc2ccc(Cl)cc2/C1=C/c1cc(Cl)c(O)c(Cl)c1 | 90%

target: CAMK1D (human) (UniProt Q8IU85); assay: as above; details: compound 0.5 µM; ATP 10 µM
Sequence (Q8IU85 whole entry, looked up): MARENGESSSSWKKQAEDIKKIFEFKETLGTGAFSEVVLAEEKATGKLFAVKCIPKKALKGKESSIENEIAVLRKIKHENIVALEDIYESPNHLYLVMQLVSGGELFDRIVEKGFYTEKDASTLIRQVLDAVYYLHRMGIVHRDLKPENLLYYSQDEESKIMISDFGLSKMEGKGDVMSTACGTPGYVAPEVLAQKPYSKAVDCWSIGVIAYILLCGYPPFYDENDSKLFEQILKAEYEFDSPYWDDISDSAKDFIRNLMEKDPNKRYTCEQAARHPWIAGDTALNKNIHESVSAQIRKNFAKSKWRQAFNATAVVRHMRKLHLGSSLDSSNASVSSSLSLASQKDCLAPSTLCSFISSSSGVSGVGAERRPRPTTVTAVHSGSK

Compound | residual activity
O=c1cc(N2CCOCC2)oc2c1ccc1ccccc12 | 91.1%
CC(=O)c1ccc(N2CCOCC2)cc1O | 96.9%
O=C1Nc2ccc(Cl)cc2/C1=C/c1cc(Cl)c(O)c(Cl)c1 | 104%

target: PTK2B (human) (UniProt Q14289); assay: as above; details: compound 0.5 µM; ATP 10 µM

Compound | residual activity
O=c1cc(N2CCOCC2)oc2c1ccc1ccccc12 | 94.3%
CC(=O)c1ccc(N2CCOCC2)cc1O | 102%
O=C1Nc2ccc(Cl)cc2/C1=C/c1cc(Cl)c(O)c(Cl)c1 | 96.7%

target: MARK2 (human) (UniProt Q7KZI7); assay: as above; details: compound 0.5 µM; ATP 10 µM

Compound | residual activity
O=c1cc(N2CCOCC2)oc2c1ccc1ccccc12 | 101%
CC(=O)c1ccc(N2CCOCC2)cc1O | 107%
O=C1Nc2ccc(Cl)cc2/C1=C/c1cc(Cl)c(O)c(Cl)c1 | 79.7%

target: CSNK2A2 (human) (UniProt P19784); assay: as above; details: compound 0.5 µM; ATP 10 µM

Compound | residual activity
O=c1cc(N2CCOCC2)oc2c1ccc1ccccc12 | 78.6%
CC(=O)c1ccc(N2CCOCC2)cc1O | 98.8%
O=C1Nc2ccc(Cl)cc2/C1=C/c1cc(Cl)c(O)c(Cl)c1 | 33.3%

target: NEK6 (human) (UniProt Q9HC98); assay: as above; details: compound 0.5 µM; ATP 10 µM

Compound | residual activity
O=c1cc(N2CCOCC2)oc2c1ccc1ccccc12 | 92.5%
CC(=O)c1ccc(N2CCOCC2)cc1O | 96.5%
O=C1Nc2ccc(Cl)cc2/C1=C/c1cc(Cl)c(O)c(Cl)c1 | 104%

target: MAP3K14 (human) (UniProt Q99558); assay: as above; details: compound 0.5 µM; ATP 10 µM

Compound | residual activity
O=c1cc(N2CCOCC2)oc2c1ccc1ccccc12 | 81.2%
CC(=O)c1ccc(N2CCOCC2)cc1O | 82.6%
O=C1Nc2ccc(Cl)cc2/C1=C/c1cc(Cl)c(O)c(Cl)c1 | 111%

target: CHUK (human) (UniProt O15111); assay: as above; details: compound 0.5 µM; ATP 10 µM

Compound | residual activity
O=c1cc(N2CCOCC2)oc2c1ccc1ccccc12 | 93.4%
CC(=O)c1ccc(N2CCOCC2)cc1O | 96.2%
O=C1Nc2ccc(Cl)cc2/C1=C/c1cc(Cl)c(O)c(Cl)c1 | 97%

target: DDR2 (human) (UniProt Q16832); assay: as above; details: compound 0.5 µM; ATP 10 µM

Compound | residual activity
O=c1cc(N2CCOCC2)oc2c1ccc1ccccc12 | 105%
CC(=O)c1ccc(N2CCOCC2)cc1O | 104%
O=C1Nc2ccc(Cl)cc2/C1=C/c1cc(Cl)c(O)c(Cl)c1 | 85.8%
